Experimental data from PMC6882465, “Towards discovery of new leishmanicidal scaffolds able to inhibit Leishmania GSK-3” (Journal of Enzyme Inhibition and Medicinal Chemistry, 2019).
Where two headings read alike, the source gives them in different places.

Assays:
LdGSK-3 = LdGSK-3 (Leishmania donovani, UniProt A6N857); experiment: Inhibition of LdGSK-3 with Kinase Glo; type: biochemical; conditions: for % inhibition @ 10µM (initial screening on LdGSK3): Table S2; for IC50: read-out: LdGSK-3 IC50
Procedure: Assessment of inhibition of LdGSK-3 with Kinase Glo^TM
The reaction was allowed to proceed for 30 min at 30 °C, then it was incubated at room temperature for another 10 min after addition of Kinase Glo reagents (Promega, Ref. V6712). ATP consumption by LdGSK-3 was measured indirectly through end-point luminescence measurement of each well in a Varioskan Flash microplate reader (Thermo).

hGSK-3β = hGSK-3β (Homo sapiens, UniProt P49841); experiment: hGSK-3β inhibition; type: biochemical; conditions: Table 2
hGSK-3β, sequence (P49841 whole entry): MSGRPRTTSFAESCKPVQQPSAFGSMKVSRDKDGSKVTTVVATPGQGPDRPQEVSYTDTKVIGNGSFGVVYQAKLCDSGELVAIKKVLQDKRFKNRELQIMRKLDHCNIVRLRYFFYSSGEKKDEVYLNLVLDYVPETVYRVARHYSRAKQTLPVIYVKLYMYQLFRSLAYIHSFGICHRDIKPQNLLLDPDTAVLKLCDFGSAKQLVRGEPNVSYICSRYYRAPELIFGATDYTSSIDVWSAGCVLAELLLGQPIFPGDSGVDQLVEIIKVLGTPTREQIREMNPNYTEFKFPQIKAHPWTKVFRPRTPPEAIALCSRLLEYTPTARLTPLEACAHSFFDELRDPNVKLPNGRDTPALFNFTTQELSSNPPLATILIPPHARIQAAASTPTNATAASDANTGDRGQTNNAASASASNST

LdGSK-3, sequence (A6N857 entry or part of it): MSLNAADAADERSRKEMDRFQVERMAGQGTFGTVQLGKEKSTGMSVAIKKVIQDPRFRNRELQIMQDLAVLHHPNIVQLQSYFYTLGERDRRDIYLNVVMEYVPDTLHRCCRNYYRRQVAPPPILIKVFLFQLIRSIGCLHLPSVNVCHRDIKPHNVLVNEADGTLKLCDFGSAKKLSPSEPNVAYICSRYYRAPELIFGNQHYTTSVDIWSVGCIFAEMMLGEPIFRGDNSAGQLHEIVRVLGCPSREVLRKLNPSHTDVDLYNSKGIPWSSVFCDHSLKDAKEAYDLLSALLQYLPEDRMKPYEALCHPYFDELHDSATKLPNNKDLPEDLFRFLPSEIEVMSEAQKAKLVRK

% inhibition @ 10µM (initial screening on LdGSK3) (LdGSK-3) [%] | Structure (SMILES) | further results
3.65±2.60 | Cc1cc(NC(=O)c2ccc([N+](=O)[O-])s2)ccc1Br [Compound 186] | 
67.81±1.17 | CC(=O)Nc1ccc(-c2cnc(N)c(-c3nc4ccc(F)cc4[nH]3)c2)cc1 [Compound 187] | IC50 (hGSK-3β): 1220 ± 430 nM; IC50 (LdGSK-3; Table 2): 9100 nM; percentage of inhibition of LdGSK-3 (LdGSK-3; assayed at 10 µM): higher than 50%
12.20±2.70 | CCOc1ccccc1C(=O)Nc1nnc(-c2ccc3c(c2)OCO3)s1 [Compound 191] | 
7.15±1.10 | Cc1nc(C(=O)Nc2ccc3c(c2)OCO3)nn1-c1ccc(F)cc1 [Compound 198] | 
18.65±3.35 | COc1ccc(-c2csc(NC(=O)c3ccc([N+](=O)[O-])s3)n2)cc1 [Compound 201] | 
14.00±2.25 | Cc1nc(-c2ccc3c(c2)OCO3)sc1C(=O)NCc1ccc2c(c1)OCO2 [Compound 205] | 
16.10±4.80 | Cc1nc(N2CC(C)OC(C)C2)sc1C(=O)Nc1ccc2c(c1)OCO2 (centres unmarked) [Compound 209] | 
17.65±3.55 | COc1ccc([N+](=O)[O-])cc1NC(=O)c1cc(Cl)ccc1O [Compound 210] | 

The next lines start with the compound.

Structure (SMILES) | % inhibition @ 10µM (initial screening on LdGSK3) (LdGSK-3) [%] | further results
Cc1cc2cc(CNc3ccc4c(c3)OCO4)c(=O)n(CCO)c2cc1C [Compound 188] | 20.90±4.45 | 
O=C(c1cccc(Nc2ncc(-c3ccc4c(c3)OCO4)cn2)c1)N1CCOCC1 [Compound 189] | 12.20±0.75 | 
Nc1nc(-c2ccccn2)nc(N)c1Cc1c(F)cccc1Cl [Compound 190] | 8.15±3.40 | 
CC(C)(C)Nc1nc(-c2ccccn2)nc2ccccc12 [Compound 192] | -2.40±2.70 | 
O=C(CN(Cc1ccccn1)Cc1ccccn1)NCc1ccc2c(c1)OCO2.O=C(O)C(F)(F)F [Compound 193] | 2.65±4.15 | 
COc1ccc(C2C3CCCCC3(O)CCN2CC(=O)Nc2ccc(Cl)cc2Cl)cc1 (centres unmarked) [Compound 194] | 0.90±4.25 | 
COc1ccccc1C1CC(c2ccc(NS(C)(=O)=O)cc2)=NN1C(=O)c1cccs1 (centres unmarked) [Compound 195] | 16.55±4.05 | 
Cc1cc(C)n(-c2nc(NC(C)(C)C)nc(N3CCOCC3)n2)n1 [Compound 196] | -2.80±6.35 | 
CCN(Cc1cccs1)C(=O)CSc1nnc(-c2ccc3c(c2)OCO3)o1 [Compound 197] | 10.05±1.90 | 
CC1CN(Cc2ccc(C#N)cc2)CCN1c1ccc(NC(=O)c2ccccc2F)cc1.O=C(O)C(F)(F)F.O=C(O)C(F)(F)F (centres unmarked) [Compound 199] | 8.70±1.75 | 
COc1ccc2ncc(=O)n(CCN3CCC(NCc4ccc(-c5cccs5)cc4)CC3)c2n1 [Compound 200] | 20.95±1.30 | 
CC1CCCN(S(=O)(=O)c2ccc(C(=O)Nc3nc(-c4ccccn4)cs3)cc2)C1 (centres unmarked) [Compound 202] | 6.50±2.15 | 
Cc1ccccc1CNC(=O)CN(Cc1ccccn1)Cc1ccccn1.O=C(O)C(F)(F)F [Compound 203] | 4.90±2.30 | 
CN(C)CCN(C)Cc1ccc(Cl)cc1NS(=O)(=O)c1ccc(Cl)c(Cl)c1 [Compound 204] | 8.00±4.85 | 
C=CCN(Cc1cccs1)C(=O)CSc1nnc(-c2ccc3c(c2)OCO3)o1 [Compound 206] | 10.00±0.90 | 
CCN(CC)c1ccc(S(=O)(=O)N(CC)CC)c2nonc12 [Compound 207] | 8.90±5.85 | 
O=C(CN1CCN(c2ccccn2)CC1)Nc1cc(S(=O)(=O)N2CCCCCC2)ccc1Cl [Compound 208] | 10.20±3.25 | 
O=C1Nc2ccc(S(=O)(=O)O)cc2C1=C1Nc2ccccc2C1=NO [Indirubin-3’-monoxime-5-sulphonic acid, reference compound] |  | IC50 (LdGSK-3; Table 1): 2400 nM
